{"source": "patent US20220152019A1", "about": "“COMPOUNDS, COMPOSITIONS, AND METHODS FOR TREATING INFLAMMATORY OR IMMUNE-MEDIATED CONDITIONS OF SURFACE TISSUES” (Landos Biopharma, Inc., priority 2020, published 2022)", "key": {"[1]": {"system": "MC903-induced atopic dermatitis in mice", "experiment": "MC903-induced model of atopic dermatitis, topical cream, disease activity index scoring", "assay_type": "in vivo", "settings": "BT-11 topical cream 2% (Formula F3) daily to the ear, vs placebo cream", "method": "(§1) MC903-induced model. MC903 (2 nM in 20 uL ethanol) was applied to the dorsal ear skin three times per week for nine applications. BT-11 topical cream (2%) (Formula F3 is Table 2) was applied to the ear daily. Mice were scored for erythema, scaling and skin thickness, summarized into a composite disease activity index score through day 19."}, "[2]": {"system": "splenic CD3+CD4+ T cells and CD45+ cells", "experiment": "Flow cytometry of spleen cells from the IMQ-induced psoriasis model", "assay_type": "in vivo, mice", "settings": "topical BT-11 vs DMSO control", "method": "(§2) Imiquimod (IMQ)-induced model. C57BL/6 mice were anesthetized, shaved, and briefly exposed to depilatory cream on the surface of the back. Mice were given three days to recover from the procedure prior to entry to the study. After 3 days, mice were challenged with approximately 60 mg of […] imiquimod cream daily by spreading cream over the shaved area. Treatment with BT-11 dihydrochloride salt (200 μg) in dimethyl sulfoxide (DMSO) or a DMSO control lacking BT-11 occurred by topical application to the shaved area. Mice were scored for erythema, scaling and skin thickness, summarized into a composite psoriasis area and severity index (PASI) score on a scale from 0 to 12, on day 7.\nAnalysis. Spleens were excised and crushed by microscope slides. Red blood cells were hypotonically lysed from the resultant suspension. Samples were filtered, washed and centrifuged prior to staining. Production of TNF, IL-17, and IL-21 were quantified from CD3+CD4+ T cells and IL6 from CD45+ by flow cytometry."}, "[3]": {"system": "Imiquimod (IMQ)-induced psoriasis in C57BL/6 mice", "experiment": "Imiquimod (IMQ)-induced model of psoriasis, topical treatment, PASI scoring", "assay_type": "in vivo", "settings": "BT-11 dihydrochloride salt 200 μg in DMSO, vs DMSO control, day 7", "method": "as §2"}, "[4]": {"system": "cervical lymph node CD3+CD4+ T cells", "experiment": "Flow cytometry of cervical lymph node cells from the MC903-induced atopic dermatitis model", "assay_type": "in vivo, mice", "settings": "cervical lymph nodes, BT-11 cream 2% vs placebo cream", "method": "as §1, with “19. Analysis. Cervical lymph nodes were excised and crushed by microscope slides. Red blood cells were hypotonically lysed from the resultant suspension. Samples were filtered, washed and centrifuged prior to staining. Production of IFNγ, IL-5, and IL-4 were quantified from CD3+CD4+ T cells by flow cytometry.” for “19.”"}}, "data": [{"smiles": "O=C(c1cccc(-c2nc3ccccc3[nH]2)n1)N1CCN(C(=O)c2cccc(-c3nc4ccccc4[nH]3)n2)CC1", "note": "[BT-11, piperazine-1,4-diylbis((6-(1H-benzo[d]imidazo-2-yl)pyridine-2-yl)methanone)]", "values": [{"measurement": "disease activity subscores (erythema, scaling, skin thickness)", "setting": "[1]", "value": "reductions in each subscore"}, {"measurement": "reduction of severity of disease (composite disease activity index score)", "setting": "[1]; through day 19, FIG. 2A", "value": "approximately 70%"}, {"measurement": "splenic proportion of TNF-positive CD4+ T cells", "setting": "[2]; FIG. 1B", "value": "reduced"}, {"measurement": "splenic proportion of IL-17-positive CD4+ T cells", "setting": "[2]; FIG. 1C", "value": "reduced"}, {"measurement": "splenic proportion of IL-21-positive CD4+ T cells", "setting": "[2]; FIG. 1D", "value": "reduced"}, {"measurement": "splenic proportion of IL-6+ cells within all CD45+ immune cells", "setting": "[2]; FIG. 1E", "value": "reduction"}, {"measurement": "PASI subscores (erythema, scaling, skin thickness)", "setting": "[3]", "value": "reductions in each subscore"}, {"measurement": "cervical lymph node proportion of IFNγ-positive CD4+ T cells", "setting": "[4]; FIG. 2B", "value": "reduced"}, {"measurement": "cervical lymph node proportion of IL-4-positive CD4+ T cells", "setting": "[4]; FIG. 2C", "value": "reduced"}, {"measurement": "cervical lymph node proportion of IL-5-positive CD4+ T cells", "setting": "[4]; FIG. 2D", "value": "reduced"}]}]}
